# Measured values reported in patent US7968601B2, “Adamantyl acetamides as 11-β hydroxysteroid dehydrogenase inhibitors” (Janssen Pharmaceutica N.V., priority 2002, dated 2011).
# pIC50: −log10 of the molar value.
# Key:
# [1] = biological target: 11b-HSD1 (Homo sapiens, UniProt P28845); experiment: Enzymatic assay, 11b-HSD1 reductase activity (conversion of cortisone into cortisol); assay type: biochemical; details: pIC50 scored 1-3, read-out: [C1] HSD1-prot Reduct Score
# Procedure: The effects of compounds on 11b-HSD1 dependent conversion of cortisone into cortisol (reductase activity) was studied in a reaction mixture containing 30 mM Tris-HCl buffer pH 7.2, 180 μM NADPH, 1 mM EDTA, 2 μM cortisone, 1 μl drug and/or solvent and 11 μg recombinant protein in a final volume of 100 μl.
# (§1) All incubations were performed for 45 min at 37 C in a water bath. The reaction was stopped by adding 100 μl acetonitrile containing 20 μg corticosterone as internal standard. After centrifugation, the product formation was analysed in the supernatant by HPLC on a Hypersyl BDS-C18 column using 0.05 mM ammonium acetate/methanol (50/50) as solvent. In all of the aforementioned assays, the drugs to be tested were taken from a stock solution and tested at a final concentration ranging from […] to 3.10^−9M. From the thus obtained dose response curves, the pIC50 value was calculated and scored as follows; Score 1=pIC50 value<5, Score 2=pIC50 value in the range of 5 to 6, Score 3=pIC50 value>6. (in this table NT stands for Not Tested).
# [2] = biological target: T1, 11b-HSD2 (Homo sapiens, UniProt P80365); experiment: Enzymatic assay, 11b-HSD2 dependent dehydrogenase activity; assay type: biochemical; details: 11b-HSD2 dehydrogenase activity, pIC50 scored 1-3, read-out: [C1] HSD2 prot Dehydro Score
# T1 sequence (P80365 1-405): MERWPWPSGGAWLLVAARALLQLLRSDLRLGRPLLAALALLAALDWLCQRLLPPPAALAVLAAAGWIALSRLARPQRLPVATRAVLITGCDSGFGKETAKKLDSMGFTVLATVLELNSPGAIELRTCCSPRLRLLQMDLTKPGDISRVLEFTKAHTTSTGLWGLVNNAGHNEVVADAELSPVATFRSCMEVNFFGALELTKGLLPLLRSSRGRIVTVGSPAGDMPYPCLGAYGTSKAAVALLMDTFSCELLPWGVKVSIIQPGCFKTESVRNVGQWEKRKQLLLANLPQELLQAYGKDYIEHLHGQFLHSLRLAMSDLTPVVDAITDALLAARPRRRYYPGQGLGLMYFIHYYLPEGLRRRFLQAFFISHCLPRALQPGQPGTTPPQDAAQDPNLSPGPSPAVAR
# Procedure: The effects on the 11b-HSD2 dependent dehydrogenase activity was studied in a reaction mixture containing 0.1M sodium phosphate buffer pH 7.5, 300 μM NAD, 100 nM cortisol (of which 2 nM is 3H-radio labelled), 1 μl drug and/or solvent and 2.5 μg recombinant protein in a final volume of 100 μl.
# as §1
# [3] = biological target: T2, 11b-HSD1 (Mus musculus, UniProt P50172); experiment: Cellular assay, 11b-HSD1 activity in differentiated 3T3-L1 cells; assay type: cell-based; details: 4 hour pre-incubation, pIC50 scored 1-3, read-out: [C2] HSD1 cellular 3T3-L1 Score
# T2 construct: endogenous in cells; host or cells: 3T3-L1 (ATCC-CL-173), differentiated into adipocytes
# Procedure: The effects on 11b-HSD1 activity was measured in differentiated 3T3-L1 cells and rat hepatocytes.
# Mouse fibroblast 3T3-L1 cells (ATCC-CL-173) were seeded at a density of 16500 cells/ml in 12 well plates and grown for 7 days in DMEM medium (supplemented with 10% heat inactivated foetal calf serum, 2 mM glutamine and 25 mg gentamycin) at 37 C in a humidified 5% CO2 atmosphere. Medium was refreshed twice a week. Fibroblasts were differentiated into adipocytes at 37 C in a 5% CO2 humidified atmosphere in growth medium containing 2 μg/ml insulin, 55 μg/ml IBMX and 39.2 μg/ml dexamethasone.
# Following a 4 hour pre-incubation with test compound, 0.5 μCi ^3H-cortisone or dehydrocorticosterone, was added to the cultures. One hour later, the medium was extracted on Extrelut^3-columns with 15 ml diethyl ether and the extract was analysed by HPLC as described above.
# (§2) As for the enzymatic assays, the compounds to be tested were taken from a stock solution and tested at a final concentration ranging from […] to 3.10^−9M. From the thus obtained dose response curves, the pIC50 value was calculated and scored as follows; Score 1=pIC50 value<5, Score 2=pIC50 value in the range of 5 to 6, Score 3=pIC50 value>6. (in this table NT stands for Not Tested).
# [4] = biological target: T1, 11b-HSD2; experiment: Cellular assay, 11b-HSD2 activity in HepG2 cells; assay type: cell-based; design: endogenous in cells; host or cells: HepG2 (ATCC HB-8065); details: 4 hour pre-incubation, pIC50 scored 1-3, read-out: [C2] HSD2 cellular HepG2 Score
# Procedure: The effects on 11b-HSD2 activity was studied in HepG2 and LCC-PK1-cells HepG2-cells (ATCC HB-8065) were seeded in 12 well plates at a density of 100,000 cells/ml and grown at 37 C in a humidified 5% CO2 atmosphere in MEM-Rega-3 medium supplemented with 10% heat inactivated foetal calf serum, 2 mM L-glutamine and sodium bicarbonate). Medium was refreshed twice a week. Pig kidney cells (LCC-PK1, ATCC CRL-1392) were seeded at a density of 150,000 cells/ml in 12 well plates and grown at 37 C in a humidified 5% CO2 atmosphere in Medium 199 supplemented with Earls modified salt solution, 100 U/ml penicillin, 100 μg/ml streptomycin and 10% foetal calf serum. Medium was refreshed twice a week. Twenty four hours prior to the onset of the experiment, medium was changed by medium containing 10% charcoal stripped foetal calf serum.
# Following a 4 hour pre-incubation with test compound, 0.5 μCi ^3H-cortisol or corticosterone, was added to the cultures. One hour later, the medium was extracted on Extrelut^3-columns with 15 ml diethyl ether and the extract was analysed by HPLC as described above.
# as §2
# 11b-HSD1 (Homo sapiens, UniProt P28845), sequence (P28845 whole entry): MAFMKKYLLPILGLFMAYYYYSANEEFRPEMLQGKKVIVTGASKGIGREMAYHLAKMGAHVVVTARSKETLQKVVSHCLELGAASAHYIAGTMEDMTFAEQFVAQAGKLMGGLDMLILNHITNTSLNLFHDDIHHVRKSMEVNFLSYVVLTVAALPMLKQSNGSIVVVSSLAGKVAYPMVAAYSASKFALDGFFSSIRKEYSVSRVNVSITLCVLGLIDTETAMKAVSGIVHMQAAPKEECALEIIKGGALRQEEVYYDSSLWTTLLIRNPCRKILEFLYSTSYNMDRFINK
# T2 sequence (P50172 whole entry): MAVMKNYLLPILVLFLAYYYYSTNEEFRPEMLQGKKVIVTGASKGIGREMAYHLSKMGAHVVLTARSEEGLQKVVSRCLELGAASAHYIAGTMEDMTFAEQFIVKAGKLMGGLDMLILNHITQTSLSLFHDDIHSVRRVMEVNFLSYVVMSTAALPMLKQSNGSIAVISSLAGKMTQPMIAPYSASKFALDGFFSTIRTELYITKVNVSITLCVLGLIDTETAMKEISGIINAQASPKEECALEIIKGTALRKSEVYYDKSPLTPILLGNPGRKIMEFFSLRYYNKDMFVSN
SMILES,pIC50 [1],pIC50 [2],pIC50 [3],pIC50 [4]
CC1C(NC(=O)C2(c3ccccc3)CC2)CC2CC1C2(C)C (stereo not drawn) [Compound 56],,< 5.00,5.00 to 6.00,< 5.00
CCCOc1cccc(C(C)(C)C(=O)NC2C3CC4CC(C3)CC2C4)c1 (stereo not drawn) [Compound 53],< 5.00,< 5.00,> 6.00,< 5.00
O=C(Cc1ccccc1)NC1C2CC3CC(C2)CC1C3 (stereo not drawn) [Compound 30],,,> 6.00,< 5.00
NC(C(=O)NC1C2CC3CC(C2)CC1C3)c1ccccc1 (stereo not drawn) [Compound 50],< 5.00,< 5.00,5.00 to 6.00,< 5.00
CC(C)(C(=O)NC1C2CC3CC(C2)CC1C3)c1ccc(OCCN2CCOCC2)cc1 (stereo not drawn) [Compound 73],< 5.00,< 5.00,> 6.00,< 5.00
CC(C)(C(=O)NC1C2CC3CC(C2)CC1C3)c1ccc(OCC(=O)O)cc1 (stereo not drawn) [Compound 72],5.00 to 6.00,< 5.00,> 6.00,< 5.00
O=C(NCC12CC3CC(CC(C3)C1)C2)C1(c2ccccc2)CCCC1 [Compound 35],,< 5.00,5.00 to 6.00,< 5.00
CC1(C)C2CCC1(C)C(NC(=O)C1(c3ccccc3)CCCC1)C2 (stereo not drawn) [Compound 57],,< 5.00,5.00 to 6.00,< 5.00

# Now from value to compound:
pIC50 [1],pIC50 [2],pIC50 [3],pIC50 [4],SMILES
> 6.00,< 5.00,> 6.00,< 5.00,CC1CCC(C(=O)NC2C3CC4CC(C3)CC2C4)c2ccccc21 (stereo not drawn) [Compound 236]
> 6.00,,> 6.00,< 5.00,COc1ccc(OC)c(C(C)(C)C(=O)NC2C3CC4CC(C3)CC2C4)c1 (stereo not drawn) [Compound 93]
> 6.00,< 5.00,> 6.00,< 5.00,O=C(NC1C2CC3CC(C2)CC1C3)C1=CCOc2ccccc21 (stereo not drawn) [Compound 162]
> 6.00,< 5.00,> 6.00,< 5.00,Cc1cc(CCC(=O)N2CCOCC2)cc(C(C)(C)C(=O)N[C@H]2[C@@H]3CC4C[C@H]2C[C@](F)(C4)C3)c1 [Compound 251]
5.00 to 6.00,< 5.00,> 6.00,< 5.00,CC(=CC(=O)NC1C2CC3CC(C2)CC1C3)c1ccccc1 (stereo not drawn) [Compound 153]
< 5.00,< 5.00,> 6.00,< 5.00,CC(C)(C(=O)NC1C2CC3CC(C2)CC1C3)c1cccc(F)c1 (stereo not drawn) [Compound 84]
< 5.00,< 5.00,> 6.00,< 5.00,CC(C)(C(=O)NC1C2CC3CC(C2)CC1C3)c1cc(F)ccc1F (stereo not drawn) [Compound 88]
> 6.00,< 5.00,> 6.00,< 5.00,CC(C)(C(=O)NC1C2CC3CC(C2)CC1C3)c1cccc2ccccc12 (stereo not drawn) [Compound 137]
> 6.00,< 5.00,> 6.00,< 5.00,O=C(NC1C2CC3CC(C2)CC1C3)C1Cc2ccccc21 (stereo not drawn) [Compound 177]
> 6.00,< 5.00,> 6.00,< 5.00,O=C(NC1C2CC3CC(C2)CC1C3)C1(c2cccnc2)CCCC1 (stereo not drawn) [Compound 126]
